Experiments:
[1] = tested on: HT29 (colon cancer); experiment: MTT cell viability assay, HT29; assay type: cell-based; conditions: max 100 µM, mean ± SD
Experimental: (§1) Cell lines from the American Type Culture Collection (ATCC) were used to test the human breast adenocarcinoma cell line (MCF7), rat glial tumor (C6), healthy mouse fibroblast cell line (L929), and colon cancer (HT29). Cells were combined with solutions of 1% penicillin (Sigma Aldrich), 10% fetal bovine serum (FBS; Sigma Aldrich), and 89% DMEM (Dulbecco's modified Eagle's medium; Gibco, Thermo Fisher Scientific). The cells were incubated at 37°C with 95% humidity and 5% CO2 to allow the medium to develop.
(§2) All compounds were examined for their cytotoxic effects on the L929, HT29, MCF7, and C6 cell lines using MTT assay. Approximately 1 × 10^4 cells were seeded in each well. Cells were allowed to adhere for 24 h and then the syntheses were applied at different concentrations. All syntheses were run in three repetitions. Wells with a maximum of 100 µM product were incubated for 24 h. Cisplatin was used as the positive control, and all wells devoid of specimens served as negative controls. To identify metabolically active cells, the wells were incubated for 3 h at 37°C after being treated with MTT solution. Following the MTT interaction, DMSO solution was added to the wells after they had been drained. This solution was used to dissolve the formazan crystals, and a color shift indicated how many live cells were present in each well.

[2] = tested on: rat glial tumor (C6); experiment: MTT cell viability assay, C6; assay type: cell-based; conditions: 24 h incubation, max 100 µM, mean ± SD
Experimental: as §1, §2

[3] = tested on: L929 (healthy mouse fibroblast cell line); experiment: MTT cell viability assay, L929; assay type: cell-based; conditions: max 100 µM, mean ± SD
Experimental: as §1, §2

[4] = tested on: CA IX enzyme; experiment: Carbonic anhydrase IX inhibition assay (ELISA kit, CA IX protein level); assay type: biochemical, human; conditions: for Concentration (CA IX protein level, ELISA): ELISA kit, Control 250,225, lower = stronger inhibition, p < 0.001; for Concantration hCA IX: supplement table, same ELISA values
Experimental: The CA IX inhibitor acetazolamide was used as a positive control.
CA‐IX level was measured using the DCA900, R&D Systems ELISA Kit. In brief, 100 μL samples were incubated with 50 μL assay buffer for 2 h at room temperature (RT) in a 96‐well plate. The well was then washed four times with 400 µL wash buffer. After 200 µL of a conjugate buffer incubated at room temperature for 2 hours, the plate was washed four times with wash buffer. It was then incubated with 200 µL of substrate buffer for 30 min at room temperature. After washing, 50 µL of the stop solution was used to terminate the reaction. The plate was read at 450 nm using an Epoch™ microplate spectrophotometer (BioTek). The concentration of CA IX protein in each sample was calculated using a standard curve.

[5] = tested on: human breast adenocarcinoma cell line (MCF7); experiment: MTT cell viability assay, MCF7; assay type: cell-based; conditions: max 100 µM, mean ± SD
Experimental: as §1, §2

[6] = tested on: Ki67; experiment: Immunofluorescent microscope analysis, Ki67 in L929; assay type: cell-based, mouse; conditions: L929 cell line, compared with the cisplatin-treated group
Experimental: (§3) Immunofluorescent microscope analysis was performed as in the previous study.^[ [33] ^]

[7] = tested on: Ki67; experiment: Immunofluorescent microscope analysis, Ki67 in C6; assay type: cell-based, rat; conditions: C6 cell line, compared with the cisplatin-treated group
Experimental: as §3

[8] = tested on: BAX; experiment: RT-PCR expression profile, BAX in C6; assay type: cell-based, rat; conditions: C6 cell lines, effective dose, 24 h, vs control group, p < 0.05
Experimental: (§4) Total RNA was first isolated from the cells to which effective doses of compounds 3d and/or 3j were applied at the 24th hour, by the kit protocols, and then cDNA was synthesized from this total RNA. The expression profiles of Caspase 3, BAX, and BCL‐2 genes from the cDNA samples obtained were analyzed with the RT‐PCR device by the kit protocol. Statistical analysis of the data with the ΔΔCT method was performed using the “RT2 profiler RT‐PCR Array Data Analysis version 3.5” (http://pcrdataanalysissabiosciences.com/pcr/arrayanalysis.php) software.

[9] = tested on: BAX; experiment: RT-PCR expression profile, BAX in HT29; assay type: cell-based; conditions: HT29 cell lines, effective dose, 24 h, vs control group, p < 0.05
Experimental: as §4

[10] = tested on: Ki67; experiment: Immunofluorescent microscope analysis, Ki67 in MCF7; assay type: cell-based, human; conditions: MCF7 cell line, compared with the cisplatin-treated group
Experimental: as §3

[11] = tested on: Caspase 3; experiment: RT-PCR expression profile, Caspase 3 in C6; assay type: cell-based, rat; conditions: C6 cell lines, effective dose, 24 h, vs control group, p < 0.05
Experimental: as §4

[12] = tested on: Ki67; experiment: Immunofluorescent microscope analysis, Ki67 in HT29; assay type: cell-based; conditions: HT29 cell line, compared with the cisplatin-treated group
Experimental: as §3

[13] = tested on: BAX; experiment: RT-PCR expression profile, BAX in MCF7; assay type: cell-based, human; conditions: MCF7 cell lines, effective dose, 24 h, vs control group, p < 0.05
Experimental: as §4

[14] = tested on: BAX; experiment: RT-PCR expression profile, BAX in L929; assay type: cell-based, mouse; conditions: L929 cell lines, effective dose, 24 h, vs control group, p < 0.05
Experimental: as §4

[15] = Homo sapiens, HT-29, 24 h incubation
[16] = Mus musculus, L929, 24 h incubation
[17] = Homo sapiens, MCF7, 24 h incubation

Concentration (CA IX protein level, ELISA) [4] | Concantration hCA IX [4] | IC50 [1, 15] | IC50 ([2]; Rattus norvegicus) | IC50 [5, 17] | Molecule | IC50 ([1]; 24 h incubation) | IC50 [2] | IC50 ([3]; 24 h incubation) | IC50 ([5]; 24 h incubation) | IC50 [3, 16] | Ki67 immunolocalisation rate [6] | Ki67 immunolocalisation rate [7] | BAX expression increase [8] | BAX expression increase [9] | Ki67 immunolocalisation rate [10] | Caspase 3 expression increase [11] | Ki67 immunolocalisation rate [12] | BAX expression increase [13] | BAX expression increase [14]
93,975 pg/mL | 93,975 pg/ml |  |  |  | 4‐(5‐Cyano‐1H‐benzo[d]imidazol‐2‐yl)‐N′‐[(imidazol‐2‐yl)methylene]benzohydrazide [Compound 3f] | > 100 µM | > 100 µM | > 100 µM | > 100 µM |  |  |  |  |  |  |  |  |  | 
 |  |  |  |  | N.N.[Cl][Pt][Cl] [Cisplatin, reference compound] | 59.4 ± 12.6 µM | 39.4 ± 6.4 µM | 88.8 ± 6.4 µM | 29.6 ± 7.6 µM |  |  |  |  |  |  |  |  |  | 
 |  | 71.8 ± 3.68 µM | 98.9 ± 7.94 µM | 86.4 ± 1.28 µM | N#Cc1ccc2[nH]c(-c3ccc(C(=O)NN=Cc4ccco4)cc3)nc2c1 [Compound 3a, 4‐(5‐Cyano‐1H‐benzo[d]imidazol‐2‐yl)‐N′‐[(furan‐2‐yl)methylene]benzohydrazide] |  |  |  |  | 84.6 ± 9.6 µM |  |  |  |  |  |  |  |  | 
175,225 pg/mL | 175,225 pg/ml | 89.6 ± 5.74 µM | > 100 µM | 88.4 ± 2.18 µM | Cc1ccc(C=NNC(=O)c2ccc(-c3nc4cc(C#N)ccc4[nH]3)cc2)o1 [Compound 3b, 4‐(5‐Cyano‐1H‐benzo[d]imidazol‐2‐yl)‐N′‐[(5‐methylfuran‐2‐yl)methylene]benzohydrazide] |  |  |  |  | > 100 µM |  |  |  |  |  |  |  |  | 
150,225 pg/mL | 150,225 pg/ml | 90.6 ± 12.1 µM | > 100 µM | > 100 µM | N#Cc1ccc2[nH]c(-c3ccc(C(=O)NN=Cc4ccc([N+](=O)[O-])o4)cc3)nc2c1 [Compound 3c, 4‐(5‐Cyano‐1H‐benzo[d]imidazol‐2‐yl)‐N′‐[(5‐nitrofuran‐2‐yl)methylene]benzohydrazide] |  |  |  |  | > 100 µM |  |  |  |  |  |  |  |  | 
83,975 pg/mL | 83,975 pg/ml | 39.1 ± 8.28 µM | 20.5 ± 8.34 µM | 25.6 ± 16.4 µM | Cc1ccsc1C=NNC(=O)c1ccc(-c2nc3cc(C#N)ccc3[nH]2)cc1 [Compound 3d, 4‐(5‐Cyano‐1H‐benzo[d]imidazol‐2‐yl)‐N′‐[(3‐methylthiophen‐2‐yl)methylene]benzohydrazide] |  |  |  |  | > 100 µM | significantly decreased | significantly decreased | 4.06 times | 6.59 times | significantly decreased | 2.75 times | significantly decreased | 12.55 times | 
120,225 pg/mL | 120,225 pg/ml | > 100 µM | > 100 µM | > 100 µM | N#Cc1ccc2[nH]c(-c3ccc(C(=O)NN=Cc4ccncc4)cc3)nc2c1 [Compound 3e, 4‐(5‐Cyano‐1H‐benzo[d]imidazol‐2‐yl)‐N′‐[(pyridine‐4‐yl)methylene]benzohydrazide] |  |  |  |  | > 100 µM |  |  |  |  |  |  |  |  | 
95,745 pg/mL | 95,745 pg/ml | > 100 µM | > 100 µM | > 100 µM | N#Cc1ccc2[nH]c(-c3ccc(C(=O)NN=Cc4cccs4)cc3)nc2c1 [Compound 3g, 4‐(5‐Cyano‐1H‐benzo[d]imidazol‐2‐yl)‐N′‐[(thiophen‐2‐yl)methylene]benzohydrazide] |  |  |  |  | > 100 µM |  |  |  |  |  |  |  |  | 
119,425 pg/mL | 119,425 pg/ml | > 100 µM | > 100 µM | > 100 µM | N#Cc1ccc2[nH]c(-c3ccc(C(=O)NN=Cc4cccnc4)cc3)nc2c1 [Compound 3h, 4‐(5‐Cyano‐1H‐benzo[d]imidazol‐2‐yl)‐N′‐[(pyridine‐3‐yl)methylene]benzohydrazide] |  |  |  |  | > 100 µM |  |  |  |  |  |  |  |  | 
92,225 pg/mL | 92,225 pg/ml | > 100 µM | > 100 µM | > 100 µM | N#Cc1ccc2[nH]c(-c3ccc(C(=O)NN=Cc4ccc([N+](=O)[O-])s4)cc3)nc2c1 [Compound 3i, 4‐(5‐Cyano‐1H‐benzo[d]imidazol‐2‐yl)‐N′‐[(5‐nitrothiophen‐2‐yl)methylene]benzohydrazide] |  |  |  |  | > 100 µM |  |  |  |  |  |  |  |  | 
82,745 pg/mL | 82,745 pg/ml | 45.8 ± 15.6 µM | > 100 µM | > 100 µM | Cc1ccc(C=NNC(=O)c2ccc(-c3nc4cc(C#N)ccc4[nH]3)cc2)s1 [Compound 3j, 4‐(5‐Cyano‐1H‐benzo[d]imidazol‐2‐yl)‐N′‐[(5‐methylthiophen‐2‐yl)methylene]benzohydrazide] |  |  |  |  | > 100 µM | significantly decreased |  |  | 3.07 times |  |  | significantly decreased |  | 105.7 times
